# Measured values: US10858335B2 (Rigel Pharmaceuticals, Inc., priority 2014, dated 2020)
# Tested on: GDF8 signaling (p-SMAD-3 (Ser423/425))
# Test: AlphaScreen SureFire SMAD3 (p-Ser423/425) assay, GDF8-stimulated cells (GDF pSMAD)
# Assay type: cell-based
# Details: Mus musculus, MPC-11, MPC11; GDF8-stimulated; p-SMAD3 AlphaScreen; read-out: GDF pSMAD (MPC11) (inhibition of GDF8 signaling)
row,IC50 [µM],SMILES
1,0.752,"Cc1cnc(-c2cccc(C(F)(F)F)c2)c(-c2ccn3ncnc3c2)c1 [compound 867, 7-(2-(3-((Difluoro-13-methyl)-12-fluoranyl)phenyl)-5-methylpyridin-3-yl)-[1,2,4]triazolo[1,5-a]pyridine]"
2,0.404,"Cc1cnc(-c2cccc(Cl)c2)c(-c2ccn3ncnc3c2)c1 [compound 868, 7-(2-(3-Chlorophenyl)-5-methylpyridin-3-yl)-[1,2,4]triazolo[1,5-a]pyridine]"
3,0.688,"Clc1ccc(Cl)c(-c2ncccc2-c2ccc3ncsc3c2)c1 [compound 869, 6-(2-(2,5-Dichlorophenyl)pyridin-3-yl)benzo[d]thiazole]"
4,0.557,"Cn1cnc2ccc(-c3cccnc3-c3cc(Cl)ccc3Cl)cc21 [compound 870, 6-(2-(2,5-Dichlorophenyl)pyridin-3-yl)-1-methyl-1H-benzo[d]imidazole]"
5,1.83,"Clc1ccc(Cl)c(-c2ncccc2-c2ccc3nc[nH]c3c2)c1 [compound 871, 6-(2-(2,5-Dichlorophenyl)pyridin-3-yl)-1H-benzo[d]imidazole]"
6,0.775,"Clc1ccc(Cl)c(-c2ncccc2-c2ccc3nccn3c2)c1 [compound 872, 6-(2-(2,5-Dichlorophenyl)pyridin-3-yl)imidazo[1,2-a]pyridine]"
7,1.19,"Clc1ccc(Cl)c(-c2ncccc2-c2ccn3ncnc3c2)c1 [compound 873, 7-(2-(2,5-Dichlorophenyl)pyridin-3-yl)-[1,2,4]triazolo[1,5-a]pyridine]"
8,6.47,"Fc1cc(F)c(-c2ncccc2-c2ccn3ncnc3c2)cc1F [compound 874, 7-(2-(2,4,5-Trifluorophenyl)pyridin-3-yl)-[1,2,4]triazolo[1,5-a]pyridine]"
9,12.4,"Fc1cc(-c2ncccc2-c2ccn3ncnc3c2)cc(F)c1F [compound 875, 7-(2-(3,4,5-Trifluorophenyl)pyridin-3-yl)-[1,2,4]triazolo[1,5-a]pyridine]"
10,2.37,"Cc1ccc(Cl)c(-c2ncccc2-c2ccn3ncnc3c2)c1 [compound 876, 7-(2-(2-Chloro-5-methylphenyl)pyridin-3-yl)-[1,2,4]triazolo[1,5-a]pyridine]"
11,10.2,"Cc1ccc(C(F)(F)F)cc1-c1ncccc1-c1ccn2ncnc2c1 [compound 878, 7-(2-(2-Methyl-5-(trifluoromethyl)phenyl)pyridin-3-yl)-[1,2,4]triazolo[1,5-a]pyridine]"
12,1.48,"FC(F)(F)c1cccc(-c2ncccc2-c2ccn3ncnc3c2)c1 [compound 879, 7-(2-(3-(Trifluoromethyl)phenyl)pyridin-3-yl)-[1,2,4]triazolo[1,5-a]pyridine]"
13,0.808,"COc1cccc(-c2ncccc2-c2ccn3ncnc3c2)c1 [compound 880, 7-(2-(3-Methoxyphenyl)pyridin-3-yl)-[1,2,4]triazolo[1,5-a]pyridine]"
14,1.12,"FC(F)(F)Oc1cccc(-c2ncccc2-c2ccn3ncnc3c2)c1 [compound 882, 7-(2-(3-(Trifluoromethoxy)phenyl)pyridin-3-yl)-[1,2,4]triazolo[1,5-a]pyridine]"
15,0.512,"FC(F)Oc1cccc(-c2ncccc2-c2ccn3ncnc3c2)c1 [compound 883, 7-(2-(3-(Difluoromethoxy)phenyl)pyridin-3-yl)-[1,2,4]triazolo[1,5-a]pyridine]"
16,0.997,"Fc1ccc(OC(F)(F)F)cc1-c1ncccc1-c1ccn2ncnc2c1 [compound 884, 7-(2-(2-Fluoro-5-(trifluoromethoxy)phenyl)pyridin-3-yl)-[1,2,4]triazolo[1,5-a]pyridine]"

row,IC50 [µM],SMILES
1,0.253,"CNc1ncnc2ccc(-c3cccnc3-c3ccc(F)c(Cl)c3)cc12 [compound 886, 6-(2-(3-Chloro-4-fluorophenyl)pyridin-3-yl)-N-methylquinazolin-4-amine]"
2,1.75,"Cn1c(=O)cnc2ccc(-c3cccnc3-c3ccc(F)c(Cl)c3)cc21 [compound 887, 7-(2-(3-Chloro-4-fluorophenyl)pyridin-3-yl)-1-methylquinoxalin-2(1H1)-one]"
3,4.05,"Cc1cc(-c2ncccc2-c2ccc3ncc(=O)n(C)c3c2)ccc1F [compound 888, 7-(2-(4-Fluoro-3-methylphenyl)pyridin-3-yl)-1-methylquinoxalin-2(1H)-one]"
4,1.52,"Cn1c(=O)cnc2ccc(-c3cccnc3-c3cc(Cl)ccc3F)cc21 [compound 889, 7-(2-(5-Chloro-2-fluorophenyl)pyridin-3-yl)-1-methylquinoxalin-2(1H)-one]"
5,1.3,"O=c1cnc2ccc(-c3cccnc3-c3ccc(F)c(Cl)c3)cc2[nH]1 [compound 890, 7-(2-(3-Chloro-4-fluorophenyl)pyridin-3-yl)quinoxalin-2(1H)-one]"
6,0.632,"Cc1cc(-c2ncccc2-c2ccc3ncc(=O)[nH]c3c2)ccc1F [compound 891, 7-(2-(4-Fluoro-3-methylphenyl)pyridin-3-yl)quinoxalin-2(1H)-one]"
7,0.426,"O=c1cnc2ccc(-c3cccnc3-c3cc(Cl)ccc3F)cc2[nH]1 [compound 892, 7-(2-(5-Chloro-2-fluorophenyl)pyridin-3-yl)quinoxalin-2(1H)-one]"
8,0.0936,"Fc1ccc(-c2ncccc2-c2ccn3nccc3n2)cc1C1CC1 [compound 896, 5-(2-(3-Cyclopropyl-4-fluorophenyl)pyridin-3-yl)pyrazolo[1,5-a]pyrimidine]"
9,0.714,"CCOC(=O)c1cnn2ccc(-c3cccnc3-c3ccc(F)c(Cl)c3)nc12 [compound 898, Ethyl 5-(2-(3-chloro-4-fluorophenyl)pyridin-3-yl)pyrazolo[1,5-a]pyrimidine-3-carboxylate]"
10,2.14,"CN1CCC(NC(=O)c2cnn3ccc(-c4cccnc4-c4ccc(F)c(Cl)c4)nc23)CC1 [compound 899, 5-(2-(3-Chloro-4-fluorophenyl)pyridin-3-yl)-N-(1-methylpiperidin-4-yl)pyrazolo[1,5-a]pyrimidine-3-carboxamide]"
11,2.35,"N#Cc1cnn2ccc(-c3cccnc3-c3ccc(F)c(Cl)c3)nc12 [compound 900, 5-(2-(3-Chloro-4-fluorophenyl)pyridin-3-yl)pyrazolo[1,5-a]pyrimidine-3-carbonitrile]"
12,1.06,"Cc1cc(-c2ncccc2-c2ccn3ncc(C#N)c3n2)ccc1F [compound 901, 5-(2-(4-Fluoro-3-methylphenyl)pyridin-3-yl)pyrazolo[1,5-a]pyrimidine-3-carbonitrile]"
13,2.58,"COc1cc(Nc2nccc(-c3cccnc3-c3ccc(F)c(C)c3)n2)cc(OC)c1OC [compound 903, 4-(2-(4-Fluoro-3-methylphenyl)pyridin-3-yl)-N-(3,4,5-trimethoxyphenyl)pyrimidin-2-amine]"
14,9.07,"Cc1cc(-c2ncccc2-c2ccnc(Nc3ccc(N4CCOCC4)cc3)n2)ccc1F [compound 904, 4-(2-(4-Fluoro-3-methylphenyl)pyridin-3-yl)-N-(4-morpholinophenyl)pyrimidin-2-amine]"
15,1.49,"Cc1cc(-c2ncccc2-c2ccnc(Nc3cccc(N4CCOCC4)c3)n2)ccc1F [compound 905, 4-(2-(4-Fluoro-3-methylphenyl)pyridin-3-yl)-N-(3-morpholinophenyl)pyrimidin-2-amine]"
16,3.34,"Cc1cc(-c2ncccc2-c2ccnc(Nc3ccc(S(N)(=O)=O)cc3)n2)ccc1F [compound 906, 4-((4-(2-(4-Fluoro-3-methylphenyl)pyridin-3-yl)pyrimidin-2-yl)amino)benzenesulfonamide]"
